# According to publication PMC12311259, “Antifibrotic effects of specific targeting of the 5‐hydroxytryptamine 2B receptor (5‐HT2BR) in murine models and ex vivo models of scleroderma skin” (Arthritis & Rheumatology (Hoboken, N.j.), 2025):
# Entries after “also recorded” stand apart in the source; their conditions may differ.
# Tests used:
# Histamine H1 (hu) = biological target: T1, Histamine H1 (hu) (Homo sapiens, UniProt P35367); experiment: Functionality assay, GTPγS Binding, Eurofins Panlabs 313200; assay type: biochemical
# T1 construct: Eurofins Panlabs 313200
# Text: (§1) Effects were considered significant if AM1476's mean value was three or more SDs above the vehicle control mean in the agonist assay or three or more SDs below the positive control agonist (5‐nM α‐methylserotonin) mean in the antagonist assay. AM1476 was screened for selectivity against approximately 200 targets using a Eurofins Panlabs Spectrum screen panel including enzymatic and receptor binding assays.
# healthy individuals = experiment: Phase 1 clinical trial, safety, tolerability and pharmacokinetic profile (NCT04691115); assay type: in vivo, human; details: for Any adverse event / Depressed level of consciousness / Dizziness / Gastrointestinal disorders / Headache / Nausea / Nervous system disorders / Presyncope / Serious adverse event / Syncope: fasted, N = 6
# Text: These findings prompted us to perform a phase 1 clinical trial investigating safety, tolerability, and the pharmacokinetic profile of AM1476 in healthy individuals (ClinicalTrials.gov identifier NCT04691115). […] An excerpt of the summary of adverse events is found in Supplementary Table S5. […] The anticipated clinical efficacy exposure was well covered by investigated doses.
# Adrenergic α1A (hu) = biological target: T2, Adrenergic α1A (hu) (Homo sapiens, UniProt P35348); experiment: Functionality assay, IP1, Eurofins Panlabs 302040; assay type: cell-based
# T2 construct: Eurofins Panlabs 302040
# Text: as §1
# Adrenergic α1B (hu) = biological target: T3, Adrenergic α1B (hu) (Homo sapiens, UniProt P35368); experiment: Functionality assay, IP1, Eurofins Panlabs 302060; assay type: cell-based
# T3 construct: Eurofins Panlabs 302060
# Text: as §1
# human 5-HT2BR = biological target: T4, human 5-HT2BR (Homo sapiens, UniProt P41595); experiment: Functionality assay, HTRF quantification of IP1 accumulation in CHO-K1 cells; assay type: cell-based
# T4 construct: 355260 (IP1); host or cells: CHO-K1
# [1] = system: Sodium Channel, Site 2 (gp); experiment: Functionality assay, Eurofins Panlabs 475010; assay type: biochemical, guinea pig
# Text: as §1
# [2] = Pharmacokinetic profile (no method given)
# [3] = biological target: T5, Serotonin (5-Hydroxytryptamine) 5-HT1A (hu) (Homo sapiens, UniProt P08908); experiment: Receptor binding, Eurofins Panlabs 271110
# T5 construct: Eurofins Panlabs 271110
# Text: as §1
# [4] = biological target: T6, Uptake, Norepinephrine (hu) (Homo sapiens, UniProt P23975); experiment: Functionality assay, Uptake, Eurofins Panlabs 302000; assay type: cell-based
# T6 construct: Eurofins Panlabs 302000
# Text: as §1
# [5] = system: approximately 200 targets; experiment: Eurofins Panlabs Spectrum screen selectivity panel (enzymatic and receptor binding assays); details: no binding defined as <50% inhibition at 10 μM
# Text: as §1
# Adrenergic α1D (hu) = biological target: T7, Adrenergic α1D (hu) (Homo sapiens, UniProt P25100); experiment: Functionality assay, IP1, Eurofins Panlabs 302080; assay type: cell-based
# T7 construct: Eurofins Panlabs 302080
# Adrenergic β2 (hu) = biological target: T8, Adrenergic β2 (hu) (Homo sapiens, UniProt P07550); experiment: Functionality assay, Adenylyl Cyclase, Eurofins Panlabs 302150; assay type: cell-based
# T8 construct: Eurofins Panlabs 302150
# Text: as §1
# 5-HT2CR = biological target: T9, 5-HT2CR (Homo sapiens, UniProt P28335); experiment: Functionality assay, [35S]GTPγS binding; assay type: biochemical; details: inhibition of 5-HT (100 nM) induced [35S]GTPγS binding; read-out: IC50, antagonistic activity, human 5-HT2C
# T9 construct: 355200 (GTPγS); host or cells: CHO-K1
# Description: The binding profile of AM1476 was evaluated for binding to human 5‐HT2AR, 5‐HT2BR, and 5‐HT2CR in radioligand binding assays using Chinese hamster ovary (CHO‐K1) cells overexpressing human receptors (in vitro assays 271650, 271700, and 271800; Eurofins Panlabs Discovery). AM1476 was evaluated at 0.1, 1, 10, 100, 1,000, and 10,000 nM (5‐HT2BR) or at 1, 10, 100, 1,000, and 10,000 nM (5‐HT2AR and 5‐HT2CR). Human 5‐HT2AR and 5‐HT2BR functionality was measured with homogeneous time‐resolved fluorescence quantification of IP1 accumulation in CHO‐K1 cells (in vitro assays 355250 and 355260). Compounds creating a ≥50% inhibition of 5‐HT (5 nM) induced fluorescence response specified receptor antagonist activity. 5‐HT2CR functionality was assessed with [35S] GTPγS for quantification of bound GTPγS. Compounds creating a ≥50% inhibition of 5‐HT (100 nM) induced [35S] GTPγS binding response specified receptor antagonist activity (in vitro assay 355200). AM1476 was evaluated at 0.1, 0.3, 1, 3, 10, 30, and 300 nM (5‐HT2BR) or 1, 10, 100, 1,000, and 10,000 nM (5‐HT2AR and 5‐HT2CR). […] Mouse 5‐HT2BR functionality was measured in a calcium influx assay (Charles River) in CHO‐KI cells expressing the mouse 5‐HT2BR using a calcium sensitive dye and a fluorescence imaging plate reader (FLIPRTETRA) instrument. AM1476 was evaluated at 0.3, 1, 3, 10, 30, 100, 300, and 1,000 nM.
# [6] = biological target: T10, Serotonin (5-Hydroxytryptamine) 5-HT7 (hu) (Homo sapiens, UniProt P34969); experiment: Receptor binding, Eurofins Panlabs 272320
# T10 construct: Eurofins Panlabs 272320
# Text: as §1
# [7] = biological target: Serotonin (5-Hydroxytryptamine) 5-HT4 (gp) (Cavia porcellus, UniProt O70528); experiment: Receptor binding, Eurofins Panlabs 272000; parameters: species or system guinea pig
# Text: as §1
# [8] = biological target: T11, Serotonin (5-Hydroxytryptamine) 5-HT5A (hu) (Homo sapiens, UniProt P47898); experiment: Receptor binding, Eurofins Panlabs 272100
# T11 construct: Eurofins Panlabs 272100
# Text: as §1
# Serotonin 5-HT6 (hu) = biological target: T12, Serotonin 5-HT6 (hu) (Homo sapiens, UniProt P50406); experiment: Functionality assay, Adenylyl Cyclase, Eurofins Panlabs 318000; assay type: cell-based
# T12 construct: 318000 (adenylyl cyclase)
# Text: as §1
# T4 sequence (P41595 whole entry): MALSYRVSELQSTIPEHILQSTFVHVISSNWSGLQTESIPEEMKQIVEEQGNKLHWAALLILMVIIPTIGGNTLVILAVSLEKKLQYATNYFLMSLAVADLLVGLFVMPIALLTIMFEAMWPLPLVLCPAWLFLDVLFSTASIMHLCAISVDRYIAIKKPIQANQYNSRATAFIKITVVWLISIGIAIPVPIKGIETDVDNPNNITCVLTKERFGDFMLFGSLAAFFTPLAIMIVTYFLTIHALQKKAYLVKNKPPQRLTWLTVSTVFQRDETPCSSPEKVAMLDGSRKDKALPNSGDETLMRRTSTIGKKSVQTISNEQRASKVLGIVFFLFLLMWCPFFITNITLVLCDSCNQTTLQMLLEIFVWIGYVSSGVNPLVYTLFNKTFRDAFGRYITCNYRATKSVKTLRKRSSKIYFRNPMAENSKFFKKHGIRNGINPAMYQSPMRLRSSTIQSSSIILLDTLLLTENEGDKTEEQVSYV
# T12 sequence (P50406 whole entry): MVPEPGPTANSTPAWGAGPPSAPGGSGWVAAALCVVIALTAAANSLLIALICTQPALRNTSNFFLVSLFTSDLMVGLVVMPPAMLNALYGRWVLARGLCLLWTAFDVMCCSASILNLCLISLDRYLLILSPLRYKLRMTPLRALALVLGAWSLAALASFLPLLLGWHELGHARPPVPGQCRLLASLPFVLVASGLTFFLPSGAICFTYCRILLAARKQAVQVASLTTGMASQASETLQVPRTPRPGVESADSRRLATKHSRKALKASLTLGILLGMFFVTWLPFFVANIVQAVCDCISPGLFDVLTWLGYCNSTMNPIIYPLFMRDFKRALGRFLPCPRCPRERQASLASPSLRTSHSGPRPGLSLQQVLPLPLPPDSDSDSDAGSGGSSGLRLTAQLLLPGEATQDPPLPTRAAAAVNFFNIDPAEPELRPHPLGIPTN
# T2 sequence (P35348 whole entry): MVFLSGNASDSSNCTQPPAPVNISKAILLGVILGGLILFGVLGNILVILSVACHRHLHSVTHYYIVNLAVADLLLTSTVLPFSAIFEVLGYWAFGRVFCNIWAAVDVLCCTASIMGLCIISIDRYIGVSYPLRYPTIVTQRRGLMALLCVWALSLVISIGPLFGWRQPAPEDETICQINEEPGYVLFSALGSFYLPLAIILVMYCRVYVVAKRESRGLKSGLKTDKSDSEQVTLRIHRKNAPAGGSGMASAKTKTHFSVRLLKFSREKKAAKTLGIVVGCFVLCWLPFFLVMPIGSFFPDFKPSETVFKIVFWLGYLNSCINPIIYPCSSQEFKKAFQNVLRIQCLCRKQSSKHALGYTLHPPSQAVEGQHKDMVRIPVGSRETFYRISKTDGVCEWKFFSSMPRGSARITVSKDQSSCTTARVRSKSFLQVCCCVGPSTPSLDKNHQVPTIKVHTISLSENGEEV
# T8 sequence (P07550 whole entry): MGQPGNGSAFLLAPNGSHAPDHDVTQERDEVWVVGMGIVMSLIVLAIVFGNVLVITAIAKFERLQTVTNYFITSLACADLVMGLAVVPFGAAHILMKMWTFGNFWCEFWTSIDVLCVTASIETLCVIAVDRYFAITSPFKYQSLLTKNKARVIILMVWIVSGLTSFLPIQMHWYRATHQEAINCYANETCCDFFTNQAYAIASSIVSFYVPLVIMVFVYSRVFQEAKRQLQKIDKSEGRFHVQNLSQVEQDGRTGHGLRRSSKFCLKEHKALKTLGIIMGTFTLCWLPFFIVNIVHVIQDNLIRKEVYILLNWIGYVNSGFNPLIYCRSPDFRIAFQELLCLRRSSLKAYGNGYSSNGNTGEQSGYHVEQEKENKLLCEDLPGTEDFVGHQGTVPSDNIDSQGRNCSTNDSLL
# T11 sequence (P47898 whole entry): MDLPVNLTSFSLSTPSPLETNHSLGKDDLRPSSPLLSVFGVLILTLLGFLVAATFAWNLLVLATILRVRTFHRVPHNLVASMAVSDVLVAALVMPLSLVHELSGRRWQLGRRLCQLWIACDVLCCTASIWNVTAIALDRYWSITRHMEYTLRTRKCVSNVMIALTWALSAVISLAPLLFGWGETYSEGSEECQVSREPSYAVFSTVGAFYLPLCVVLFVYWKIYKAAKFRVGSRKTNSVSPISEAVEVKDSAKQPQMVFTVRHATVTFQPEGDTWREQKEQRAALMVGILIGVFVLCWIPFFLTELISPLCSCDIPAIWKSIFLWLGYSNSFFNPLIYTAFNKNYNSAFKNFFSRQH
# T10 sequence (P34969 whole entry): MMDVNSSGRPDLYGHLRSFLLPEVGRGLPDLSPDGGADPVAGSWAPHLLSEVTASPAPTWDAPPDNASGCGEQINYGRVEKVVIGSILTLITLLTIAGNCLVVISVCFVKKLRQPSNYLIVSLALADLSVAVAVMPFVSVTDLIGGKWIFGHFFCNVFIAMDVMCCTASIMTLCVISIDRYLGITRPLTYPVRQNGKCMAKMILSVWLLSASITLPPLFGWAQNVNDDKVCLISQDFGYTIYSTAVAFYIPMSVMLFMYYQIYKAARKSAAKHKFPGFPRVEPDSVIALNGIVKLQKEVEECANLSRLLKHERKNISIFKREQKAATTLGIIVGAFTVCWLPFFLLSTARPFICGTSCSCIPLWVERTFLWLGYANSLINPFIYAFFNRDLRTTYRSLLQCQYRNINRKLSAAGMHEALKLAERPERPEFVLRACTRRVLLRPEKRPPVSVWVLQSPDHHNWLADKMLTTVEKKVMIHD
# Serotonin (5-Hydroxytryptamine) 5-HT4 (gp), sequence (O70528 1-358 limits assumed): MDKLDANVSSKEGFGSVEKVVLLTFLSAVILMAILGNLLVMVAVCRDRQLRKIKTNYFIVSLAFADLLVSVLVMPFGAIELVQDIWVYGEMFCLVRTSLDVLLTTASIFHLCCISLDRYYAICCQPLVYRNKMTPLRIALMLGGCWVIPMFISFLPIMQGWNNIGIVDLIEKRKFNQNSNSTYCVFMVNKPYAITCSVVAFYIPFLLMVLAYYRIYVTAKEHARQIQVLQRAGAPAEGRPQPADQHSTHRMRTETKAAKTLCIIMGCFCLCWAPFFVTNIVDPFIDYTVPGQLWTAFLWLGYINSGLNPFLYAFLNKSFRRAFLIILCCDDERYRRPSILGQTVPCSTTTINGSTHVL
# T7 sequence (P25100 whole entry): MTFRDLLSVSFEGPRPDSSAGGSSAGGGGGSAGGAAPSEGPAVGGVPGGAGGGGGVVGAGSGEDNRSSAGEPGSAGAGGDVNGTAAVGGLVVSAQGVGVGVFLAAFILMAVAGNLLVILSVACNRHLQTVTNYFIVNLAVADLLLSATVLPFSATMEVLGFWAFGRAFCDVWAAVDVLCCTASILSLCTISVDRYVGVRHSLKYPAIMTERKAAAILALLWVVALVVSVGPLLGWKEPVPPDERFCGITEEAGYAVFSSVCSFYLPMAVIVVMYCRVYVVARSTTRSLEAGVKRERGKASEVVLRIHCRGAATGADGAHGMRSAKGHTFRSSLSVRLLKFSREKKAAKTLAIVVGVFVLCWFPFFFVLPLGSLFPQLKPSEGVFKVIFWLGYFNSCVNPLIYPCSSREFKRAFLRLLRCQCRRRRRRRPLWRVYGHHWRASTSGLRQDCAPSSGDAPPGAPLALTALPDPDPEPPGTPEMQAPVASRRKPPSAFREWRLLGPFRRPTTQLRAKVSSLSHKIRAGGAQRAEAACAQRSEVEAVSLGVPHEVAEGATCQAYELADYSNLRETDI
# T3 sequence (P35368 whole entry): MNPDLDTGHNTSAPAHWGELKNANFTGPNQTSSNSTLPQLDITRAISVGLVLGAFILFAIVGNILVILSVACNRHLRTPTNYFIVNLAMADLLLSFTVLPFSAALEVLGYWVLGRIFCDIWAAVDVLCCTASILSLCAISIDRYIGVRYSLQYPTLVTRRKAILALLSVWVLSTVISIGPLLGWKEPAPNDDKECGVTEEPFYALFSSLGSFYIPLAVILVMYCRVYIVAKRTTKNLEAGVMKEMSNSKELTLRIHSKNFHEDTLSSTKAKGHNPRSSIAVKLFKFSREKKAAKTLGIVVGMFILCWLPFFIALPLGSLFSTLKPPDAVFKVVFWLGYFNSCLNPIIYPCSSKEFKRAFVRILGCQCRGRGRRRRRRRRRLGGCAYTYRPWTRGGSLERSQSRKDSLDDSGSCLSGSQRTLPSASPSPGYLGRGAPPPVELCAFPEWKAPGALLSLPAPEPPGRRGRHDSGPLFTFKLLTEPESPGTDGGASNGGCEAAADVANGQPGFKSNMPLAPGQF
# T1 sequence (P35367 whole entry): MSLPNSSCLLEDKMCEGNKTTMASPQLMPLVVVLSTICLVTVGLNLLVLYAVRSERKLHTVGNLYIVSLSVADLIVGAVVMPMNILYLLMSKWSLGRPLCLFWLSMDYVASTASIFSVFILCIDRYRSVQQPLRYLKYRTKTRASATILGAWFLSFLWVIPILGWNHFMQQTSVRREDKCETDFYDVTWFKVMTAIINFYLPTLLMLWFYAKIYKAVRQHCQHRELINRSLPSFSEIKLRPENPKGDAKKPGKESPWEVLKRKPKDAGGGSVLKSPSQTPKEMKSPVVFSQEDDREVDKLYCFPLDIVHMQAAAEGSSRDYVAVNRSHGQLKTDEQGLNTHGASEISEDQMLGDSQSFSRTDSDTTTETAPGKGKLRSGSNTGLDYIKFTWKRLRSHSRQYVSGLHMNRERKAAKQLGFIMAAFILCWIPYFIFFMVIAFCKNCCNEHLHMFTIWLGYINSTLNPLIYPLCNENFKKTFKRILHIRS
structure (smiles),measurement,setting,value
C[C@@H]1CN(C(=N)N)N=C1c1ccc(F)cc1O [AM1476],IC50,Histamine H1 (hu),28 µM
same,"agonistic activity, Histamine H1",Histamine H1 (hu); at 30 µM,No significant agonistic activity at 30 µM
same,Any adverse event,healthy individuals; 375 mg BID,2 (33.3%) no. of subjects (%)
same,Depressed level of consciousness,healthy individuals; 375 mg BID,0 no. of subjects (%)
same,Dizziness,healthy individuals; 375 mg BID,1 (16.7%) no. of subjects (%)
same,Gastrointestinal disorders,healthy individuals; 375 mg BID,2 (33.3%) no. of subjects (%)
same,Headache,healthy individuals; 375 mg BID,2 (33.3%) no. of subjects (%)
same,Nausea,healthy individuals; 375 mg BID,2 (33.3%) no. of subjects (%)
same,Nervous system disorders,healthy individuals; 375 mg BID,2 (33.3%) no. of subjects (%)
same,Presyncope,healthy individuals; 375 mg BID,0 no. of subjects (%)
same,Serious adverse event,healthy individuals; 375 mg BID,0 no. of subjects (%)
same,Syncope,healthy individuals; 375 mg BID,0 no. of subjects (%)
same,Any adverse event,healthy individuals; 500 mg BID,4 (66.7%) no. of subjects (%)
same,Depressed level of consciousness,healthy individuals; 500 mg BID,0 no. of subjects (%)
same,Dizziness,healthy individuals; 500 mg BID,1 (16.7%) no. of subjects (%)
same,Gastrointestinal disorders,healthy individuals; 500 mg BID,1 (16.7%) no. of subjects (%)
same,Headache,healthy individuals; 500 mg BID,1 (16.7%) no. of subjects (%)
same,Nausea,healthy individuals; 500 mg BID,1 (16.7%) no. of subjects (%)
same,Nervous system disorders,healthy individuals; 500 mg BID,2 (33.3%) no. of subjects (%)
same,Presyncope,healthy individuals; 500 mg BID,0 no. of subjects (%)
same,Serious adverse event,healthy individuals; 500 mg BID,0 no. of subjects (%)
same,Syncope,healthy individuals; 500 mg BID,0 no. of subjects (%)
same,serious adverse events,healthy individuals; healthy individuals,no serious adverse events were reported
same,severity of adverse events,healthy individuals; healthy individuals,most of the adverse events were mild in severity
same,tolerability,healthy individuals; healthy individuals,well tolerated
same,time to steady state,healthy individuals; multiple-dose period,by day two
same,absorption,"healthy individuals; single and multiple oral administration, fasted state",rapidly absorbed
same,IC50,Adrenergic α1A (hu),4.34 µM
same,"agonistic activity, Adrenergic α1A",Adrenergic α1A (hu); at 300 µM,No significant agonistic activity at 300 µM
same,IC50,Adrenergic α1B (hu),9.53 µM
same,"agonistic activity, Adrenergic α1B",Adrenergic α1B (hu); at 30 µM,No significant agonistic activity at 30 µM
same,agonistic activity at 5-HT2BR,human 5-HT2BR,devoid of agonistic activity; also recorded: no agonism
same,IC50,"human 5-HT2BR; inhibition of 5-HT (5 nM) induced IP1 response, CHO-K1, read-out: IC50, antagonistic activity, human 5-HT2B",0.0058 µM
same,IC50,[1],> 30 µM
same,"agonistic activity, Sodium Channel, Site 2",[1]; at 30 µM,No significant agonistic activity at 30 µM
same,distribution to the brain,[2],no preference to distribute to the brain
same,oral bioavailability,[2],orally bioavailable
same,"% Inhibition at 10 µM, 5-HT1A (hu)",[3],16%
same,IC50,[4],3.78 µM
same,binding to approximately 200 other targets,[5],no binding to the majority of targets
same,IC50,Adrenergic α1D (hu),7.76 µM
same,"agonistic activity, Adrenergic α1D",Adrenergic α1D (hu); at 30 µM,No significant agonistic activity at 30 µM
same,IC50,Adrenergic β2 (hu),154 µM
same,"agonistic activity, Adrenergic β2",Adrenergic β2 (hu); at 300 µM,No significant agonistic activity at 300 µM
same,IC50,5-HT2CR,3.1 µM
same,"% Inhibition at 1 µM, 5-HT7 (hu)",[6]; 1 µM (value in brackets),39%
same,"% Inhibition at 10 µM, 5-HT7 (hu)",[6]; 10 µM,91%
same,"% Inhibition at 1 µM, 5-HT4 (gp)",[7]; 1 µM (value in brackets),34%
same,"% Inhibition at 10 µM, 5-HT4 (gp)",[7]; 10 µM,74%
same,"% Inhibition at 1 µM, 5-HT5A (hu)",[8]; 1 µM (value in brackets),10%
same,"% Inhibition at 10 µM, 5-HT5A (hu)",[8]; 10 µM,70%
same,IC50,Serotonin 5-HT6 (hu),4.55 µM
same,"agonistic activity, Serotonin 5-HT6",Serotonin 5-HT6 (hu); at 30 µM,No significant agonistic activity at 30 µM
